Data as given in US9693556B2, “Herbicidal pyridazinone derivatives” (SYNGENTA LIMITED, priority 2011, dated 2017).

Assays:
Type in all cases: in vivo
[1] = test system: Alopecurus myosuroides (ALOMY); test: Post-emergence herbicidal glasshouse test on Alopecurus myosuroides; conditions: post-emergence; 1000 g/h; evaluated after 13 days
Outline: (§1)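 Scoring scale: 5=80-100%, 4=60-79%, 3=40-59%, 2=20-39%, 1=0-19% damage, assessed on day 13. Compound sprayed at 1000 g/h on soil-grown plants (day 1 pre-, day 8 post-emergence) kept at 24/16 °C, 14 h light.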

[2] = test system: Ipomoea hederacea (IPOHE); test: Pre-emergence herbicidal glasshouse test on Ipomoea hederacea; conditions: pre-emergence; 1000 g/h; evaluated after 13 days
Outline: as §1

[3] = test system: Amaranthus retoflexus (AMARE); test: Pre-emergence herbicidal glasshouse test on Amaranthus retoflexus; conditions: pre-emergence; 1000 g/h; evaluated after 13 days
Outline: as §1

[4] = test system: Echinochloa crus-galli (ECHCG); test: Pre-emergence herbicidal glasshouse test on Echinochloa crus-galli; conditions: pre-emergence; 1000 g/h; evaluated after 13 days
Outline: as §1

Setaria faberi (SETFA) [5] = test: Post-emergence herbicidal glasshouse test on Setaria faberi; conditions: post-emergence; 1000 g/h; evaluated after 13 days
Outline: as §1

Solanum nigrum (SOLNI) [6] = test: Post-emergence herbicidal glasshouse test on Solanum nigrum; conditions: post-emergence; 1000 g/h; evaluated after 13 days
Outline: as §1

Setaria faberi (SETFA) [7] = test: Pre-emergence herbicidal glasshouse test on Setaria faberi; conditions: pre-emergence; 1000 g/h; evaluated after 13 days
Outline: as §1

Solanum nigrum (SOLNI) [8] = test: Pre-emergence herbicidal glasshouse test on Solanum nigrum; conditions: pre-emergence; 1000 g/h; evaluated after 13 days
Outline: as §1

[9] = test system: Echinochloa crus-galli (ECHCG); test: Post-emergence herbicidal glasshouse test on Echinochloa crus-galli; conditions: post-emergence; 1000 g/h; evaluated after 13 days
Outline: as §1

[10] = test system: Ipomoea hederacea (IPOHE); test: Post-emergence herbicidal glasshouse test on Ipomoea hederacea; conditions: post-emergence; 1000 g/h; evaluated after 13 days
Outline: as §1

[11] = test system: Amaranthus retoflexus (AMARE); test: Post-emergence herbicidal glasshouse test on Amaranthus retoflexus; conditions: post-emergence; 1000 g/h; evaluated after 13 days
Outline: as §1

[12] = test system: Alopecurus myosuroides (ALOMY); test: Pre-emergence herbicidal glasshouse test on Alopecurus myosuroides; conditions: pre-emergence; 1000 g/h; evaluated after 13 days
Outline: as §1

Structure (SMILES) | POST Application ALOMY herbicidal damage (five point scale) [1] | PRE Application IPOHE herbicidal damage (five point scale) [2] | PRE Application AMARE herbicidal damage (five point scale) [3] | PRE Application ECHCG herbicidal damage (five point scale) [4] | POST Application SETFA herbicidal damage (five point scale) (Setaria faberi (SETFA) [5]) | POST Application SOLNI herbicidal damage (five point scale) (Solanum nigrum (SOLNI) [6]) | PRE Application SETFA herbicidal damage (five point scale) (Setaria faberi (SETFA) [7]) | PRE Application SOLNI herbicidal damage (five point scale) (Solanum nigrum (SOLNI) [8]) | POST Application ECHCG herbicidal damage (five point scale) [9] | POST Application IPOHE herbicidal damage (five point scale) [10] | POST Application AMARE herbicidal damage (five point scale) [11] | PRE Application ALOMY herbicidal damage (five point scale) [12]
Cn1ncc(-n2ccc(C(F)(F)F)c(-c3cc(Cl)cc(Cl)c3)c2=O)c(O)c1=O [Compound 7.022] | 4 (4=60-79% damage) | 2 (2=20-39% damage) | 5 (5=80-100% damage) | 5 (5=80-100% damage) | 5 (5=80-100% damage) | 5 (5=80-100% damage) | 5 (5=80-100% damage) | 5 (5=80-100% damage) | 5 (5=80-100% damage) | 2 (2=20-39% damage) | 5 (5=80-100% damage) | 5 (5=80-100% damage)
Cc1c(-c2c(C(C)C)nn(C)c(=O)c2O)ccc(S(C)(=O)=O)c1C1=NOCC1 [Compound 2.024] | 5 (5=80-100% damage) | 4 (4=60-79% damage) | 5 (5=80-100% damage) | 5 (5=80-100% damage) | 5 (5=80-100% damage) | 5 (5=80-100% damage) | 4 (4=60-79% damage) | 4 (4=60-79% damage) | 5 (5=80-100% damage) | 5 (5=80-100% damage) | 5 (5=80-100% damage) | 5 (5=80-100% damage)
Cn1ncc(-c2ccccc2S(=O)(=O)C(F)(F)F)c(O)c1=O [Compound 1.056] | 5 (5=80-100% damage) | 1 (1=0-19% damage) | 5 (5=80-100% damage) | 5 (5=80-100% damage) | 5 (5=80-100% damage) | 5 (5=80-100% damage) | 1 (1=0-19% damage) | 4 (4=60-79% damage) | 5 (5=80-100% damage) | 5 (5=80-100% damage) | 5 (5=80-100% damage) | 5 (5=80-100% damage)
CCS(=O)(=O)c1nc(C(F)(F)F)ccc1-c1cnn(C)c(=O)c1O [Compound 1.135] | 4 (4=60-79% damage) | 5 (5=80-100% damage) | 5 (5=80-100% damage) | 5 (5=80-100% damage) | 5 (5=80-100% damage) | 5 (5=80-100% damage) | 5 (5=80-100% damage) | 5 (5=80-100% damage) | 5 (5=80-100% damage) | 5 (5=80-100% damage) | 5 (5=80-100% damage) | 4 (4=60-79% damage)
COCn1ncc(-c2ccc(F)cc2S(C)(=O)=O)c(O)c1=O [Compound 2.006] | 5 (5=80-100% damage) | 5 (5=80-100% damage) | 5 (5=80-100% damage) | 5 (5=80-100% damage) | 5 (5=80-100% damage) | 5 (5=80-100% damage) | 5 (5=80-100% damage) | 5 (5=80-100% damage) | 5 (5=80-100% damage) | 5 (5=80-100% damage) | 5 (5=80-100% damage) | 5 (5=80-100% damage)
Cc1ccc(Cl)c(-c2c(C(F)(F)F)ccn(-c3cnn(C)c(=O)c3O)c2=O)c1 [Compound 7.032] | 3 (3=40-59% damage) | 5 (5=80-100% damage) | 5 (5=80-100% damage) | 5 (5=80-100% damage) | 5 (5=80-100% damage) | 5 (5=80-100% damage) | 5 (5=80-100% damage) | 5 (5=80-100% damage) | 5 (5=80-100% damage) | 5 (5=80-100% damage) | 5 (5=80-100% damage) | 4 (4=60-79% damage)
Cn1ncc(-c2ccccc2S(C)(=O)=O)c(O)c1=O [Compound 1.046] | 5 (5=80-100% damage) | 1 (1=0-19% damage) | 5 (5=80-100% damage) | 5 (5=80-100% damage) | 5 (5=80-100% damage) | 5 (5=80-100% damage) | 3 (3=40-59% damage) | 5 (5=80-100% damage) | 5 (5=80-100% damage) | 5 (5=80-100% damage) | 5 (5=80-100% damage) | 5 (5=80-100% damage)
